Experimental data as given in patent US10696692B2, “Amido-benzyl sulfone and sulfoxide derivates” (Forma TM, LLC, priority 2012, dated 2020).

Assays:
NAMPT = NAMPT (Homo sapiens (Human), UniProt P43490); experiment: Assay 1: Biochemical Inhibition Assay (NAMPT enzymatic reaction, NMN quantified by mass spectrometry); settings: read-out: Biochemical (IC50);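 note: recombinant His-tagged human NAMPT preincubated with compound 15 min, then reacted 30 min at rt with 1 µM NAM, 100 µM PRPP, 2.5 mM ATP, NMN product read by RapidFire MS, normalized to L-Cystathionine internal standard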
Sequence of NAMPT (P43490 whole entry): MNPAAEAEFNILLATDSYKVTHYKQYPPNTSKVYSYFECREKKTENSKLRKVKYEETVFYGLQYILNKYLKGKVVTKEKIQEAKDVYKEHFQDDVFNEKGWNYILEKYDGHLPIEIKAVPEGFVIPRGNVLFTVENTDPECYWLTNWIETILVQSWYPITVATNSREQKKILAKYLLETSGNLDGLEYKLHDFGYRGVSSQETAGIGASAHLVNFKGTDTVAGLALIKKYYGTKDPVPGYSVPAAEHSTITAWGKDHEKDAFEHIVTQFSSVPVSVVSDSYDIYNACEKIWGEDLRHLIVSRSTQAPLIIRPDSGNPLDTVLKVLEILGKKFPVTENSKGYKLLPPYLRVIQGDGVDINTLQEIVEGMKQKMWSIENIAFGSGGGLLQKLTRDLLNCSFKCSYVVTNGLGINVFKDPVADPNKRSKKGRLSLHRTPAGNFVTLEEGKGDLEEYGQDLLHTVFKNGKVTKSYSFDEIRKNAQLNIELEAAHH

A2780 cells = experiment: Assay 2: In-Vitro Cell Proliferation Assay (A2780 cells, SRB readout, 72 hours); assay type: cell-based; settings: Homo sapiens, A2780, 72 h, A2780 cells, 72 hours, SRB; read-out: Cell Proliferation (IC50);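 note: viable cells counted via sulforhodamine B staining, absorbance at 570 nm, after 72 h exposure at 37 °C, DMSO 0.1% as control, media-only background subtracted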

| IC50 (NAMPT) [nM] | IC50 (A2780 cells) [nM] | Compound |
| --- | --- | --- |
| 12 | 13.3 | O=C(NCc1ccc(S(=O)(=O)N2C[C@H]3C[C@@H]2C3)cc1)c1ccc2nccn2c1 [Example 159, Imidazo[1,2-a]pyridine-6-carboxylic acid 4-(2-aza-bicyclo[2.1.1]hexane-2-sulfonyl)-benzylamide] |
| 4.7 | 15.3 | O=C(NCc1ccc(S(=O)(=O)N2CC3CC3C2)cc1)c1ccc2nccn2c1 (stereo not drawn) [Example 160, Imidazo[1,2-a]pyridine-6-carboxylic acid 4-(3-aza-bicyclo[3.1.0]hexane-3-sulfonyl)-benzylamide] |
| 30.4 | 11.9 | O=C(NCc1ccc(S(=O)(=O)N2CCN(C3CCOCC3)CC2)cc1)c1cc2ccncc2o1 [Example 170, Furo[2,3-c]pyridine-2-carboxylic acid 4-[4-(tetrahydro-pyran-4-yl)-piperazine-1-sulfonyl]-benzylamide] |
| 39.8 | 42.2 | CC(=O)N1CCC(S(=O)(=O)c2ccc(CNC(=O)c3ccc4nccn4c3)cc2)CC1 [Example 171, Imidazo[1,2-a]pyridine-6-carboxylic acid 4-(1-acetyl-piperidine-4-sulfonyl)-benzylamide] |
| 183 | 86.2 | COCCN1CCN(S(=O)(=O)c2ccc(CNC(=O)c3cnc4[nH]ncc4c3)cc2)CC1 [Example 173, 1H-Pyrazolo[3,4-b]pyridine-5-carboxylic acid 4-[4-(2-methoxy-ethyl)-piperazine-1-sulfonyl]-benzylamide] |
| 65.2 | 127 | O=C(NCc1ccc(S(=O)(=O)N2CCC(F)(F)C2)cc1)c1cnc2[nH]ncc2c1 [Example 175, 1H-Pyrazolo[3,4-b]pyridine-5-carboxylic acid 4-(3,3-difluoro-pyrrolidine-1-sulfonyl)-benzylamide] |
| 283 | 118 | CC(C)(C)OC(=O)N1CCC2(CCCN2S(=O)(=O)c2ccc(CNC(=O)c3ccc4nccn4c3)cc2)CC1 [Example 185, 1-(4-{[(Imidazo[1,2-a]pyridine-6-carbonyl)-amino]-methyl}-benzenesulfonyl)-1,8-diaza-spiro[4.5]decane-8-carboxylic acid tert-butyl ester] |
| 7.7 | 31.1 | CC(C)CN1CCC([S+]([O-])c2ccc(CNC(=O)c3cnc4nccn4c3)cc2)CC1 (stereo not drawn) [Example 188, N-[[4-[(1-isobutyl-4-piperidyl)sulfinyl]phenyl]methyl]imidazo[1,2-a]pyrimidine-6-carboxamide] |
| 130 | 23 | CC(C)CN1CCC([S+]([O-])c2ccc(CNC(=O)c3cnc4[nH]ncc4c3)cc2)CC1 (stereo not drawn) [Example 190, N-[[4-[(1-isobutyl-4-piperidyl)sulfinyl]phenyl]methyl]-1H-pyrazolo[3,4-b]pyridine-5-carboxamide] |
| 26.3 | 5.6 | CC(C)CN1CCC([S+]([O-])c2ccc(CNC(=O)c3cc4cnccc4[nH]3)cc2)CC1 (stereo not drawn) [Example 191, N-[[4-[(1-isobutyl-4-piperidyl)sulfinyl]phenyl]methyl]-1H-pyrrolo[3,2-c]pyridine-2-carboxamide] |
| 2.83 | 16.8 | CN1CCC2(C1)CN(S(=O)(=O)c1ccc(CNC(=O)c3cc4ccncc4o3)cc1)C2 [Example 197, N-[[4-[(6-methyl-2,6-diazaspiro[3.4]octan-2-yl)sulfonyl]phenyl]methyl] furo[2,3-c]pyridine-2-carboxamide] |
| 308 | 452 | O=C(NCc1ccc(S(=O)(=O)C2CCOCC2)cc1)c1cnc2[nH]ncc2c1 [Example 198, N-[(4-tetrahydropyran-4-ylsulfonylphenyl)methyl]-1H-pyrazolo[3,4-b]pyridine-5-carboxamide] |
| 8.65 | 185 | O=C(NCc1ccc(S(=O)(=O)C2CCOCC2)cc1)c1cnc2nccn2c1 [Example 199, N-[(4-tetrahydropyran-4-ylsulfonylphenyl)methyl] imidazo[1,2-a]pyrimidine-6-carboxamide] |
| 34.5 | 14.2 | O=C(NCc1ccc(S(=O)(=O)C2CCOCC2)cc1)c1ccc2nccn2c1 [Example 200, N-[(4-tetrahydropyran-4-ylsulfonylphenyl)methyl] imidazo[1,2-a]pyridine-6-carboxamide] |
| 669 | 731 | O=C(NCc1ccc(S(=O)(=O)C2CCNCC2)cc1)c1cnc2[nH]ncc2c1 [Example 203, N-[[4-(4-piperidylsulfonyl)phenyl]methyl]-1H-pyrazolo[3,4-b]pyridine-5-carboxamide] |
| 66 | 137 | O=C(NCc1ccc(S(=O)(=O)C2CCNCC2)cc1)c1cc2ccncc2s1 [Example 204, N-[[4-(4-piperidylsulfonyl)phenyl]methyl]thieno[2,3-c] pyridine-2-carboxamide] |

| IC50 (NAMPT) [nM] | IC50 (A2780 cells) [nM] | Compound |
| --- | --- | --- |
| 59.2 | 21.1 | O=C(NCc1ccc(S(=O)(=O)C2CCN(C3CCOCC3)CC2)cc1)c1cnc2[nH]ncc2c1 [Example 206, N-[[4-[(1-tetrahydropyran-4-yl-4-piperidyl)sulfonyl]phenyl]methyl]-1H-pyrazolo[3,4-b]pyridine-5-carboxamide] |
| 29.3 | 25 | CC(=O)N1CCC(S(=O)(=O)c2ccc(CNC(=O)c3cc4ccncc4o3)cc2)CC1 [Example 207, N-[[4-[(1-acetyl-4-piperidyl)sulfonyl]phenyl]methyl]furo[2,3-c]pyridine-2-carboxamide] |
| 47.7 | 10.8 | O=C(NCc1ccc(S(=O)(=O)C2CCN(CC(F)(F)F)CC2)cc1)c1cnc2[nH]ncc2c1 [Example 208, N-[[4-[[1-(2,2,2-trifluoroethyl)-4-piperidyl]sulfonyl]phenyl]methyl]-1H-pyrazolo[3,4-b]pyridine-5-carboxamide] |
| 3.72 | 8.84 | O=C(NCc1ccc(S(=O)(=O)C2CCN(CC(F)(F)F)CC2)cc1)c1cnc2nccn2c1 [Example 209, N-[[4-[[1-(2,2,2-trifluoroethyl)-4-piperidyl]sulfonyl]phenyl]methyl]imidazo[1,2-a]pyrimidine-6-carboxamide] |
| 17.7 | 3.47 | O=C(NCc1ccc(S(=O)(=O)C2CCN(CC(F)(F)F)CC2)cc1)c1ccc2nccn2c1 [Example 210, N-[[4-[[1-(2,2,2-trifluoroethyl)-4-piperidyl)sulfonyl]phenyl]methyl]imidazo[1,2-a]pyridine-6-carboxamide] |
| 15.4 | 3.23 | O=C(NCc1ccc(S(=O)(=O)C2CCN(CC(F)(F)F)CC2)cc1)c1cc2cnccc2[nH]1 [Example 211, N-[[4-[[1-(2,2,2-trifluoroethyl)-4-piperidyl]sulfonyl]phenyl]methyl]-1H-pyrrolo[3,2-c]pyridine-2-carboxamide] |
| 13.5 | 5.35 | O=C(NCc1ccc(S(=O)(=O)C2CCN(CC(F)(F)F)CC2)cc1)c1cc2ccncc2o1 [Example 212, N-[[4-[[1-(2,2,2-trifluoroethyl)-4-piperidyl]sulfonyl]phenyl]methyl]furo[2,3-c]pyridine-2-carboxamide] |
| 13.6 | 4.73 | O=C(NCc1ccc(S(=O)(=O)C2CCN(C3CCOCC3)CC2)cc1)c1ccc2nccn2c1 [Example 214, N-[[4-[(1-tetrahydropyran-4-yl-4-piperidyl)sulfonyl]phenyl]methyl]imidazo[1,2-a] pyridine-6-carboxamide] |
| 81.5 | 166 | O=C(NCc1ccc(S(=O)(=O)N2CCC3(CNC3)C2)cc1)c1ccc2nccn2c1 [Example 215, N-[[4-(2,6-diazaspiro[3.4]octan-6-ylsulfonyl)phenyl]methyl] imidazo[1,2-a]pyridine-6-carboxamide] |
| 30.4 | 13.7 | CN1CCC2(C1)CN(S(=O)(=O)c1ccc(CNC(=O)c3ccc4nccn4c3)cc1)C2 [Example 216, N-[[4-[(7-methyl-2,7-diazaspiro[3.4]octan-2-yl)sulfonyl]phenyl]methyl] imidazo[1,2-a]pyridine-6-carboxamide] |
| 16 | 10.1 | O=C(NCc1ccc(S(=O)(=O)N2CCC3(CCNC3=O)C2)cc1)c1ccc2nccn2c1 (stereo not drawn) [Example 217, N-[[4-[(1-oxo-2,7-diazaspiro[4.4]nonan-7-yl)sulfonyl]phenyl]methyl] imidazo[1,2-a]pyridine-6-carboxamide] |
| 8.45 | 2.17 | O=C(NCc1ccc(S(=O)(=O)N2CCC3(CCCO3)C2)cc1)c1ccc2nccn2c1 (stereo not drawn) [Example 219, N-[[4-(1-oxa-7-azaspiro[4.4]nonan-7-ylsulfonyl)phenyl]methyl] imidazo[1,2-a]pyridine-6-carboxamide] |
| 25 | 16.8 | O=C(NCc1ccc(S(=O)(=O)N2CC3(CCOC3)C2)cc1)c1ccc2nccn2c1 [Example 220, N-[[4-(6-oxa-2-azaspiro[3.4]octan-2-ylsulfonyl)phenyl]methyl] imidazo[1,2-a]pyridine-6-carboxamide] |
| 125 | 347 | O=C(NCc1ccc(S(=O)(=O)[C@H]2CCOC2)cc1)c1cc2cnccc2[nH]1 [Example 221, N-[[4-[(3S)-tetrahydrofuran-3-yl]sulfonylphenyl]methyl]-1H-pyrrolo[3,2-c]pyridine-2-carboxamide] |
| 9.77 | 423 | O=C(NCc1ccc(S(=O)(=O)[C@H]2CCOC2)cc1)c1cnc2nccn2c1 [Example 222, N-[[4-[(3S)-tetrahydrofuran-3-yl]sulfonylphenyl]methyl] imidazo[1,2-a]pyrimidine-6-carboxamide] |
| 64.2 | 105 | O=C(NCc1ccc(S(=O)(=O)[C@H]2CCOC2)cc1)c1ccc2nccn2c1 [Example 223, N-[[4-[(3S)-tetrahydrofuran-3-yl]sulfonylphenyl]methyl] imidazo[1,2-a]pyridine-6-carboxamide] |

| Compound | IC50 (NAMPT) [nM] | IC50 (A2780 cells) [nM] |
| --- | --- | --- |
| O=C(NCc1ccc(S(=O)(=O)N2CC3(CCOCC3)C2)cc1)c1ccc2nccn2c1 [Example 218, N-[[4-(7-oxa-2-azaspiro[3.5]nonan-2-ylsulfonyl)phenyl]methyl] imidazo[1,2-a]pyridine-6-carboxamide] | 10.3 | 3.45 |
